System: Beet Armyworm (Spodoptera exigua)
Test: Bioassay on Beet Armyworm (BAW), 128-well diet tray assay
Type: in vivo
Settings: Table 3, Assays Results Part 1
Protocol: Certain molecules disclosed in this document were tested against BAW, CEW and CL using procedures described in the following examples. In the reporting of the results, the “BAW & CEW & CL Rating Table” was used (See Table Section).
Bioassays on BAW (Spodoptera exigua)
Bioassays on BAW were conducted using a 128-well diet tray assay. One to five second instar BAW larvae were placed in each well (3 mL) of the diet tray that had been previously filled with 1 mL of artificial diet to which 50 μg/cm^2 of the test compound (dissolved in 50 μL of 90:10 acetone-water mixture) had been applied (to each of eight wells) and then allowed to dry. Trays were covered with a clear self-adhesive cover, and held at 25° C., 14:10 light-dark for five to seven days. Percent mortality was recorded for the larvae in each well; activity in the eight wells was then averaged. The results are indicated in the tables entitled “Table 3: Assay Results Part 1” and “Table 4: Assay Results Part 2” (See Table Section).

Compound | BAW Rating
Cc1cc(/C=C/C(c2cc(Cl)cc(Cl)c2)C(F)(F)F)ccc1C(=O)NCc1ccc(Cl)nc1 (centres unmarked) [AC7] | A (50-100)
Cc1cc(/C=C/C(c2cc(Cl)cc(Cl)c2)C(F)(F)F)ccc1C(=O)NCc1ccccc1F (centres unmarked) [AC9] | A (50-100)
Cc1cc(/C=C/C(c2cc(Cl)cc(Cl)c2)C(F)(F)F)ccc1C(=O)NC1CSC1 (centres unmarked) [AC10] | A (50-100)
Cc1cc(/C=C/C(c2cc(Cl)cc(Cl)c2)C(F)(F)F)ccc1C(=O)NCc1ccccc1 (centres unmarked) [AC11] | A (50-100)
Cc1cc(/C=C/C(c2cc(Cl)cc(Cl)c2)C(F)(F)F)ccc1C(=O)NCc1ccccn1 (centres unmarked) [AC12] | A (50-100)
Cc1cc(/C=C/C(c2cc(Cl)cc(Cl)c2)C(F)(F)F)ccc1C(=O)NC1CS(=O)(=O)C1 (centres unmarked) [AC13] | A (50-100)
Cc1cc(/C=C/C(c2cc(Cl)cc(Cl)c2)C(F)(F)F)ccc1C(=O)NCc1cnc(Cl)s1 (centres unmarked) [AC15] | A (50-100)
Cc1cc(/C=C/C(c2cc(Cl)cc(Cl)c2)C(F)(F)F)ccc1C(=O)NC(C)(C)c1ccccn1 (centres unmarked) [AC16] | A (50-100)
Cc1cc(/C=C/C(c2cc(Cl)cc(Cl)c2)C(F)(F)F)ccc1C(=O)NNc1ccccc1F (centres unmarked) [AC17] | A (50-100)
Cc1cc(/C=C/C(c2cc(Cl)cc(Cl)c2)C(F)(F)F)ccc1C(=O)NCc1ncccn1 (centres unmarked) [AC18] | A (50-100)
Cc1cc(/C=C/C(c2cc(Cl)cc(Cl)c2)C(F)(F)F)ccc1C(=O)NCc1ccoc1 (centres unmarked) [AC20] | A (50-100)
Cc1cc(/C=C/C(c2cc(Cl)c(Cl)c(Cl)c2)C(F)(F)F)ccc1C(=O)NCc1ccc(Cl)nc1 (centres unmarked) [AC22] | A (50-100)
Cc1cc(/C=C/C(c2cc(Cl)c(Cl)c(Cl)c2)C(F)(F)F)ccc1C(=O)NC1CSC1 (centres unmarked) [AC23] | A (50-100)
Cc1cc(/C=C/C(c2cc(Cl)c(Cl)c(Cl)c2)C(F)(F)F)ccc1C(=O)NCc1cnc(Cl)s1 (centres unmarked) [AC26] | A (50-100)
Cc1cc(/C=C/C(c2cc(Cl)c(Cl)c(Cl)c2)C(F)(F)F)ccc1C(=O)NC(C)(C)c1ccccn1 (centres unmarked) [AC27] | A (50-100)
O=C(NCc1ccc(Cl)nc1)c1ccc(/C=C/C(c2cc(Cl)c(Cl)c(Cl)c2)C(F)(F)F)cc1Cl (centres unmarked) [AC28] | A (50-100)
O=C(NC1CSC1)c1ccc(/C=C/C(c2cc(Cl)c(Cl)c(Cl)c2)C(F)(F)F)cc1Cl (centres unmarked) [AC29] | A (50-100)
O=C(NC1CS(=O)(=O)C1)c1ccc(/C=C/C(c2cc(Cl)c(Cl)c(Cl)c2)C(F)(F)F)cc1Cl (centres unmarked) [AC30] | A (50-100)
O=C(NCc1ccc(Cl)nc1)c1ccc(/C=C/C(c2cc(Cl)c(Cl)c(Cl)c2)C(F)(F)F)cc1Br (centres unmarked) [AC31] | A (50-100)
O=C(NC1CSC1)c1ccc(/C=C/C(c2cc(Cl)c(Cl)c(Cl)c2)C(F)(F)F)cc1Br (centres unmarked) [AC32] | A (50-100)
O=C(NC1CS(=O)(=O)C1)c1ccc(/C=C/C(c2cc(Cl)c(Cl)c(Cl)c2)C(F)(F)F)cc1Br (centres unmarked) [AC33] | A (50-100)
O=C(NC1CSC1)c1ccc(/C=C/C(c2cc(Cl)c(Cl)c(Cl)c2)C(F)(F)F)cc1C(F)(F)F (centres unmarked) [AC34] | A (50-100)
O=C(NC1CS(=O)(=O)C1)c1ccc(/C=C/C(c2cc(Cl)c(Cl)c(Cl)c2)C(F)(F)F)cc1C(F)(F)F (centres unmarked) [AC35] | A (50-100)
O=C(NCc1ccc(Cl)nc1)c1ccc(/C=C/C(c2cc(Cl)c(Cl)c(Cl)c2)C(F)(F)F)cc1C(F)(F)F (centres unmarked) [AC36] | A (50-100)
Cc1cc(/C=C/C(c2ccc(Cl)c(Cl)c2)C(F)(F)F)ccc1C(=O)NCc1ccc(Cl)nc1 (centres unmarked) [AC37] | A (50-100)

Compound | BAW Rating
Cc1cc(/C=C/C(c2cc(Cl)c(F)c(Cl)c2)C(F)(F)F)ccc1C(=O)NCc1ccc(Cl)nc1 (centres unmarked) [AC38] | A (50-100)
Cc1cc(/C=C/C(c2cc(Cl)cc(Cl)c2)C(F)(F)F)ccc1C(=O)NCc1cncnc1 (centres unmarked) [AC39, 4-((E)-3-(3,5-Dichlorophenyl)-4,4,4-trifluorobut-1-enyl)-2-methyl-N-((pyrimidin-5-yl)methyl)benzamide] | A (50-100)
Cc1cc(/C=C/C(c2cc(Cl)cc(Cl)c2)C(F)(F)F)ccc1C(=O)NCC(=O)NC1CC1 (centres unmarked) [AC40] | A (50-100)
Cc1cc(/C=C/C(c2cc(Cl)cc(Cl)c2)C(F)(F)F)ccc1C(=O)NCC(=O)NC1CSC1 (centres unmarked) [AC41] | A (50-100)
Cc1cc(/C=C/C(c2cc(Cl)cc(Cl)c2)C(F)(F)F)ccc1C(=O)NCc1nc2ccccc2s1 (centres unmarked) [AC42] | A (50-100)
Cc1cc(/C=C/C(c2cc(Cl)cc(Cl)c2)C(F)(F)F)ccc1C(=O)NCc1cnccn1 (centres unmarked) [AC43] | A (50-100)
Cc1cc(/C=C/C(c2cc(Cl)cc(Cl)c2)C(F)(F)F)ccc1C(=O)NN(C)c1ccccc1F (centres unmarked) [AC45] | A (50-100)
Cc1cc(/C=C/C(c2cc(Cl)cc(Cl)c2)C(F)(F)F)ccc1C(=O)NCc1ccc(Cl)cc1 (centres unmarked) [AC48] | A (50-100)
O=C(NCc1ccc(Cl)nc1)c1ccc(/C=C/C(c2cc(Cl)cc(Cl)c2)C(F)(F)F)cc1F (centres unmarked) [AC49] | A (50-100)
Cc1cc(/C=C/C(c2cc(Cl)cc(Cl)c2)C(F)(F)F)ccc1C(=O)NCc1nccn1C (centres unmarked) [AC50] | A (50-100)
Cc1cc(/C=C/C(c2cc(Cl)cc(Cl)c2)C(F)(F)F)ccc1C(=O)NCC(=O)N(C)CC(F)(F)F (centres unmarked) [AC51] | A (50-100)
Cc1cc(/C=C/C(c2cc(Cl)c(F)c(Cl)c2)C(F)(F)F)ccc1C(=O)NC1CCOCC1 (centres unmarked) [AC52] | A (50-100)
Cc1cc(/C=C/C(c2cc(Cl)c(F)c(Cl)c2)C(F)(F)F)ccc1C(=O)NCc1ccc(Cl)cn1 (centres unmarked) [AC53] | A (50-100)
Cc1cc(/C=C/C(c2cc(Cl)c(F)c(Cl)c2)C(F)(F)F)ccc1C(=O)NCc1ccnc(Cl)c1 (centres unmarked) [AC54] | A (50-100)
CC(C)(C)OC(=O)CNC(=O)c1ccc(/C=C/C(c2cc(Cl)c(Cl)c(Cl)c2)C(F)(F)F)cc1Br (centres unmarked) [AC58] | A (50-100)
Cc1cc(/C=C/C(c2cc(Cl)cc(Cl)c2)C(F)(F)F)ccc1C(=O)Nc1ccc(Cl)nc1 (centres unmarked) [AC59] | A (50-100)
O=C(NC1CSC1)c1ccc(/C=C/C(c2cc(Cl)cc(Cl)c2)C(F)(F)F)cc1F (centres unmarked) [AC61] | A (50-100)
O=C(CNC(=O)c1ccc(/C=C/C(c2cc(Cl)cc(Cl)c2)C(F)(F)F)cc1F)NCC(F)(F)F (centres unmarked) [AC62] | A (50-100)
O=C(NCc1ccc(Cl)nc1)c1ccc(/C=C/C(c2cc(Cl)c(F)c(Cl)c2)C(F)(F)F)cc1Br (centres unmarked) [AC63] | A (50-100)
O=C(CNC(=O)c1ccc(/C=C/C(c2cc(Cl)c(Cl)c(Cl)c2)C(F)(F)F)cc1Cl)NCC(F)(F)F (centres unmarked) [AC64, (E)-2-Chloro-N-(2-oxo-2-((2,2,2-trifluoroethyl)amino)ethyl)-4-(4,4,4-trifluoro-3-(3,4,5-trichlorophenyl)but-1-en-1-yl)benzamide] | A (50-100)
O=C(NCc1ccc(Cl)nc1)c1ccc(/C=C/C(c2cc(Cl)c(F)c(Cl)c2)C(F)(F)F)cc1F (centres unmarked) [AC65] | A (50-100)
O=C(CNC(=O)c1ccc(/C=C/C(c2cc(Cl)c(Cl)c(Cl)c2)C(F)(F)F)cc1Br)NCC(F)(F)F (centres unmarked) [AC66] | A (50-100)
O=C(NC1CSC1)c1ccc(/C=C/C(c2cc(Cl)c(F)c(Cl)c2)C(F)(F)F)cc1F (centres unmarked) [AC67] | A (50-100)
O=C(CNC(=O)c1ccc(/C=C/C(c2cc(Cl)c(F)c(Cl)c2)C(F)(F)F)cc1F)NCC(F)(F)F (centres unmarked) [AC68] | A (50-100)
Cc1cc(/C=C/C(c2cc(Cl)c(F)c(Cl)c2)C(F)(F)F)ccc1C(=O)NCC(=O)NCC(F)(F)F (centres unmarked) [AC69] | A (50-100)

Source: patent US9226500B2, “Pesticidal compositions and processes related thereto” (Dow AgroSciences LLC, priority 2012, dated 2016)
